Reference: US20230338609A1, “MEDICAL DEVICES AND MATERIALS COMPRISING BIODEGRADABLE POLYESTERS” (AMICOAT AS, priority 2020, published 2023)
In brackets after ≈: the same amount, converted by molar mass. Read-outs that look alike come from different tables or passages of the source. Residues, ends and D or L forms follow the SMILES beside them. *: point of attachment. NHPhenethyl = c1ccc(CCN*)cc1

Columns and labels:
[1] = test system: Salmonella sp - antibiotic-susceptible clinical isolate; assay: MIC microbroth dilution (CLSI); format: cell-based
Text: (§1) Cation-adjusted Mueller-Hinton broth (Oxoid Ltd., Basingstoke, UK and Trek Diagnostic Systems Ltd., East Grinstead, UK) (supplemented with 5% laked horse blood for Streptococcus spp., Corynebacterium jeikeium and Listeria monocytogenes) was used for aerobic bacteria, with an initial inoculum of approximately 10^5 colony-forming units (CFU)/mL.

[2] = test system: Salmonella sp - multi-drug resistant clinical isolate; assay: MIC microbroth dilution (CLSI); format: cell-based
Text: as §1

[3] = test system: Shigella sp - antibiotic-susceptible clinical isolate; assay: MIC microbroth dilution (CLSI); format: cell-based
Text: as §1

[4] = test system: Moraxella catarrhalis - reduced fluoroquinolone susceptibility clinical isolate; format: cell-based; conditions: M. catarrhalis reduced fluoroquinolone susceptibility
Text: as §1

[5] = test system: Moraxella catarrhalis - β -lactamase positive clinical isolate; format: cell-based; conditions: M. catarrhalis β-lactamase positive
Text: as §1

[6] = test system: Streptococcus pyogenes - Macrolide (M-type) resistance clinical isolate; format: cell-based; conditions: S. pyogenes Macrolide (M-type) resistance
Text: as §1

[7] = test system: Clostridium difficile - antibiotic-susceptible clinical isolate; assay: MIC microbroth dilution (CLSI); format: cell-based; design: unit not given beside the values; conditions: C. difficile
Description: Supplemented Brucella broth (SBB) was used for the anaerobic strains with an inoculum of approximately 10^6 CFU/mL. SBB is a broth consisting of 1% peptone, 0.5% ‘Lab-lemco’, 1% glucose and 0.5% sodium chloride supplemented with 5 […] vitamin K (both obtained from Sigma Aldrich Ltd.)

[8] = test system: Candida parapsilosis ATCC 22019; assay: MIC microbroth dilution (CLSI), extra control strain; format: cell-based; conditions: C. parapsilosis ATCC 22019; RPMI 1640
Description: Yeast and filamentous fungal MIC were performed in MOPS buffered RPMI 1640 medium (MOPS buffer obtained from Sigma Aldrich Ltd., RPMI 1640 obtained from Invitrogen Ltd, Paisley, Scotland). The yeast inocula were in the range 7.5×10^2-4×10^3 CFU/mL and the filamentous fungi approximately 8×10^3-1×10^5 CFU/mL

[9] = test system: Bacteroides fragilis - ATCC 25285; assay: as above; format: cell-based; design: unit not given here; conditions: B. fragilis ATCC 25285; SBB
[10] = test system: Eggerthella lenta - ATCC 43055; assay: as above; format: cell-based; design: unit not given here; conditions: SBB
[11] = test system: Staphylococcus aureus FDA486; assay: Murine skin infection model, topical treatment; format: in vivo; conditions: mice; cream or gel containing 2% (w/w); three treatments at three hourly intervals; biopsy three hours after last
Description: (§2) The skin of mice was infected with Staphylococcus aureus or Streptococcus pyogenes and subsequently given a total of three treatments at three hourly intervals. Three hours after the last treatment, skin biopsies were collected and the number of colony forming units (CFUs) present in the skin sample was determined. Results are shown in FIGS. 1 and 2, expressed as the number of colony forming units per mouse.
as §2, with “3, 4” for “1”, “5” for “2,”

[12] = test system: Streptococcus pyogenes CS301; assay: Murine skin infection model, topical treatment; format: in vivo; conditions: mice
Description: as §2
as §2, with “3, 4” for “1”, “5” for “2,”

[13] = Solubility in organic solvents; format: physicochemical; conditions: THF and chloroform
Description: Alternatively, both the compound of Formula (I) and the polymer may be dissolved in a single solvent, either prior to mixing, at the time or mixing or after mixing. Suitable solvents for this approach include THF and chloroform. It may be necessary to combine the compound of Formula (I) with the solvent, e.g. THF, for a long time, e.g. at least 4 hours, preferably at least 12 hours, maybe 1 or more days, possibly up to 7 or 14 days.
The Resomer RG502 bioresorbable polymer material and AMC-109 were separately dissolved in THF in such a manner that amount of AMC-109 compared to the bioresorbable polymer in the final painting solution was 5%. The dissolution of AMC-109 in THF takes several hours.
The Resomer L2065 bioresorbable polymer material and AMC-109 were separately dissolved in dichloromethane and chloroform, respectively. The ratio between AMC-109 and L2065 was the same as above.

[14] = test system: Haemophilus influenzae - ATCC 47247; assay: MIC microbroth dilution (CLSI), extra control strain; design: unit not given beside the values; conditions: H. influenzae ATCC 47247; HTM
[15] = test system: Staphylococcus aureus, strain ATCC 25923; conditions: for MIC S. aureus: Staphylococcus aureus ATCC 25923
[16] = test system: Methicillin resistant Staphylococcus aureus (MRSA) strain ATCC 33591; conditions: for MIC MRSA: MRSA ATCC 33591
[17] = test system: Methicillin resistant Staphylococcus epidermidis (MRSE) strain ATCC 27626; conditions: for MIC MRSE: MRSE ATCC 27626
C. albicans = conditions: Table 5
S. pyogenes = conditions: Table 5
E. coli = conditions: Table 5
P. aeruginosa = conditions: Table 5

## CC(C)(C)c1cc(C(C)(C)C)c2[nH]c(C(C)(C)C)c(CC(NC(=O)C(N)CCCNC(=N)N)C(=O)NC(CCCNC(=N)N)C(=O)NCCc3ccccc3)c2c1 (stereo not drawn) [Compound 2, Arg-Tbt-Arg-NHCH2CH2Ph]
[1]
  MIC: 8
[2]
  MIC: 8
[3]
  MIC: 8
[4]
  MIC: 8
[5]
  MIC: 4
[6]
  MIC: 16
[7]
  MIC: 16
[8]
  MIC (control strain): 8
[9]
  MIC (control strain): 64
[10]
  MIC (control strain): 32
[11]
  number of CFUs in skin biopsy vs placebo: the number of CFUs was reduced
[12]; 1% or 2% gel, three treatments at three hourly intervals
  number of CFUs in skin biopsy vs placebo gel and bactroban: more effective at reducing the number of CFUs than the placebo gel or the bactroban
[12]; 2% gel vs 1% gel
  number of CFUs in skin biopsy, 2% gel compared with 1% gel: more effective than the gel containing only 1% of compound 2
[13]
  solubility: soluble in THF and chloroform
[14]
  MIC (control strain): 4

## N=C(N)NCCCC(N)C(=O)NC(Cc1ccc(-c2ccc3ccccc3c2)cc1)C(=O)NC(CCCNC(=N)N)C(=O)NCCc1ccccc1 (stereo not shown) [Compound 1]
[1]
  MIC: 16
[2]
  MIC: 16
[3]
  MIC: 32
[4]
  MIC: 8
[5]
  MIC: 4
[6]
  MIC: 32
[7]
  MIC: 32
[8]
  MIC (control strain): 4
[9]
  MIC (control strain): 64
[10]
  MIC (control strain): 16
[15]
  MIC S. aureus: 4 µM (≈ 2.83 µg/mL)
[16]
  MIC MRSA: <3 µM
[17]
  MIC MRSE: <3 µM
[14]
  MIC (control strain): 32

## CCCCCCCCCCCCCCCCNC(=O)[C@H](CCCNC(=N)N)NC(=O)[C@H](Cc1c(C(C)(C)C)[nH]c2c(C(C)(C)C)cc(C(C)(C)C)cc12)NC(=O)[C@@H](N)CCCNC(=N)N [Compound 11]
[15]; Table 5, strain ATCC 25923
  S. aureus (MIC): 5 mg/L
[16]; Table 5, strain ATCC 33591
  MRSA (MIC): 4 mg/L
[17]; Table 5, strain ATCC 27626
  MRSE (MIC): 4 mg/L
C. albicans
  C. albicans (MIC): >100 mg/L
S. pyogenes
  S. pyogenes (MIC): 6 mg/L
E. coli
  E. coli (MIC): >100 mg/L
P. aeruginosa
  P. aeruginosa (MIC): >100 mg/L

## CC(C)(C)c1cc(C(C)(C)C)c2[nH]c(C(C)(C)C)c(C[C@H](NC(=O)[C@@H](N)CCCNC(=N)N)C(=O)N[C@@H](CCCNC(=N)N)C(=O)NC3CCCC3)c2c1 [Compound 14]
[15]; ATCC 25923
  S. aureus (MIC): <2 mg/L
[16]; ATCC 33591
  MRSA (MIC): >15 mg/L
[17]; ATCC 27626
  MRSE (MIC): <2 mg/L
C. albicans
  C. albicans (MIC): 10 mg/L
S. pyogenes
  S. pyogenes (MIC): 2 mg/L

## CC(C)CNC(=O)[C@H](CCCNC(=N)N)NC(=O)[C@H](Cc1c(C(C)(C)C)[nH]c2c(C(C)(C)C)cc(C(C)(C)C)cc12)NC(=O)[C@@H](N)CCCNC(=N)N [Compound 12]
[15]; ATCC 25923
  S. aureus (MIC): <2 mg/L
[16]; ATCC 33591
  MRSA (MIC): 3 mg/L
[17]; ATCC 27626
  MRSE (MIC): 2 mg/L
C. albicans
  C. albicans (MIC): 10 mg/L
S. pyogenes
  S. pyogenes (MIC): 2 mg/L

## N=C(N)NCCC[C@H](NC(=O)[C@H](Cc1c[nH]c2ccccc12)NC(=O)[C@@H](N)CCCNC(=N)N)C(=O)NCCc1ccccc1 [Compound 6, reference compound] (H-Arg-Trp-Arg-NHPhenethyl; N-terminus assumed)
[15]
  MIC S. aureus: 145 µM (≈ 89.9 µg/mL)
[16]
  MIC MRSA: 97 µM (≈ 60.1 µg/mL)
[17]
  MIC MRSE: 81 µM (≈ 50.2 µg/mL)

## CC(C)(C)c1cc(C(C)(C)C)c2[nH]c(C(C)(C)C)c(C[C@H](NC(=O)[C@@H](N)CCCNC(=N)N)C(=O)N[C@@H](CCCNC(=N)N)C(=O)NC3CCCCC3)c2c1 [Compound 13]
[15]; ATCC 25923
  S. aureus (MIC): <2 mg/L
[16]; ATCC 33591
  MRSA (MIC): 2 mg/L
[17]; ATCC 27626
  MRSE (MIC): 2 mg/L
C. albicans
  C. albicans (MIC): 10 mg/L
S. pyogenes
  S. pyogenes (MIC): <2 mg/L

## CCCNC(=O)[C@H](CCCNC(=N)N)NC(=O)[C@H](Cc1c(C(C)(C)C)[nH]c2c(C(C)(C)C)cc(C(C)(C)C)cc12)NC(=O)[C@@H](N)CCCNC(=N)N [Compound 10]
[15]; ATCC 25923
  S. aureus (MIC): 2 mg/L
[16]; ATCC 33591
  MRSA (MIC): 3 mg/L
[17]; ATCC 27626
  MRSE (MIC): <2 mg/L
C. albicans
  C. albicans (MIC): 10 mg/L
S. pyogenes
  S. pyogenes (MIC): 2 mg/L

## CCCCNC(=O)[C@H](CCCNC(=N)N)NC(=O)[C@H](Cc1c(C(C)(C)C)[nH]c2c(C(C)(C)C)cc(C(C)(C)C)cc12)NC(=O)[C@@H](N)CCCNC(=N)N [Compound 9]
[15]; ATCC 25923
  S. aureus (MIC): 2 mg/L
[16]; ATCC 33591
  MRSA (MIC): 3 mg/L
[17]; ATCC 27626
  MRSE (MIC): <2 mg/L
C. albicans
  C. albicans (MIC): 10 mg/L
S. pyogenes
  S. pyogenes (MIC): 2 mg/L
